From patent US8648076B2, “Cysteine protease inhibitors and their therapeutic applications” (Hybrigenics SA, priority 2005, dated 2014) come the findings set out here.

SMILES strings stand for the structures. Read-outs that look alike come from different tables or passages of the source.

Holding throughout (type): biochemical
One assay deals with T1, Uch-L3 (Homo sapiens, UniProt P15374).
T1 sequence (P15374 1-230): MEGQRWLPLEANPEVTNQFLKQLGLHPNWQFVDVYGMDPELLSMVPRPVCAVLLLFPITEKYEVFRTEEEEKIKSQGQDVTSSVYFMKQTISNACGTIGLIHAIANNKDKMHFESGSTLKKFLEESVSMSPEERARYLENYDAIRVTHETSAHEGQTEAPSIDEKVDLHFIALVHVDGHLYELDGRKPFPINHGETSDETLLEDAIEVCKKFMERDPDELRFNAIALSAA
Briefly: UCH-L3 activity assay. As to conditions: 400 nM Ub-AMC, 13 pM enzyme, 30 min pre-incubation at 25° C., 60 min at 37° C.; sigmoidal fit; AF: Autofluorescent; read-out: Uch-L3 (inhibition of cysteine protease activity). Here is the method:
Bovine Serum Albumin 0.05 mg·ml^−1 pH7.6). Compounds stocks (100 mM) were stored at −20° C. in DMSO. […] Reactions were performed as duplicates in Black LJL 96 well plates (HE microplates; Molecular Devices; 20 μl final reaction volume). The substrate concentration for Uch-L3 was 400 nM Ub-AMC (Boston Biochem). The concentration of the enzyme (Uch-L3) in specificity assays was 13 pM. The concentrations were determined in order to perform specificity assays under initial velocities at fixed substrate concentration. Compounds were pre-incubated with enzymes for 30 minutes at 25° C. Reactions were initiated by addition of substrate to the plates containing the enzymes (+/−compounds) diluted in assay buffer. Reactions were incubated for 60 minutes at 37° C. Reactions were stopped by adding acetic acid (100 mM final). Readings were performed on a Pherastar Fluorescent Reader (BMG). δ Emission 380 nm; δ Excitation=460 nm. Data (mean values+/− standard deviation) were analyzed as % of control (no compound) and plotted as percentage versus the Log of the compound concentration using GraphPad (Prism). Data were fitted to a sigmoidal model (variable slope).

For the next assay, the target named is T2, USP7 (Homo sapiens, UniProt Q93009).
T2 construct: His tag (from pFastBac-HT vector) (N); made in house; host or cells: insect cells (Sf9 or High Five), baculovirus
Briefly: USP7 activity assay.

The target of the next assay is T3, USP5 (Homo sapiens, UniProt P45974).
T3 sequence (P45974 1-858): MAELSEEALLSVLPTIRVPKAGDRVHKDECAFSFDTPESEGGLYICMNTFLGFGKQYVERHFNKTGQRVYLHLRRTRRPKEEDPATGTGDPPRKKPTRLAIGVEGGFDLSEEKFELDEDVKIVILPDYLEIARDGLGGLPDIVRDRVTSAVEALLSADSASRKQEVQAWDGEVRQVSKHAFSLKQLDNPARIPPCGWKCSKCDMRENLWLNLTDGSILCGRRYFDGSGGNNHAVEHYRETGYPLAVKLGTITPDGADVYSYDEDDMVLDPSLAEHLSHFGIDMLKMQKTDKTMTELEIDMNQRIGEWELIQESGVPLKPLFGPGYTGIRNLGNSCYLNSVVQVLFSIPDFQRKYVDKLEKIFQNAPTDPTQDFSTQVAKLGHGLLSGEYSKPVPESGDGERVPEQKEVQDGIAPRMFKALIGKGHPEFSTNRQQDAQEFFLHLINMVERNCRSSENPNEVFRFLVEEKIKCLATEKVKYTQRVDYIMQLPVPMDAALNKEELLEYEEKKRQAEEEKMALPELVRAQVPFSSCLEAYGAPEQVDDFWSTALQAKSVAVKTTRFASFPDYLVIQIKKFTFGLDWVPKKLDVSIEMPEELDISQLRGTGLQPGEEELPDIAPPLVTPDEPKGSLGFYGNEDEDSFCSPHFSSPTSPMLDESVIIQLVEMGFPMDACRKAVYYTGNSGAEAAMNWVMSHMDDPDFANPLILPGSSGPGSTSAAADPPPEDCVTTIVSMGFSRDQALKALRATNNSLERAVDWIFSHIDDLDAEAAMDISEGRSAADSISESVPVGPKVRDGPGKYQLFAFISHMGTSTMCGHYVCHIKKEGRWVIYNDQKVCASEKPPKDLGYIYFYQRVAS
In words: USP5 activity assay. The following applies: 400 nM Ub-AMC, 300 pM enzyme, 30 min pre-incubation at 25° C., 60 min at 37° C.; sigmoidal fit; AF: Autofluorescent; read-out: USP 5 (inhibition of cysteine protease activity). Here is the method:
Bovine Serum Albumin 0.05 mg·ml^−1 pH7.6). Compounds stocks (100 mM) were stored at −20° C. in DMSO. […] Reactions were performed as duplicates in Black LJL 96 well plates (HE microplates; Molecular Devices; 20 μl final reaction volume). The substrate concentration for USP5 was 400 nM Ub-AMC (Boston Biochem). The concentrations of the enzyme (USP5) in specificity assays was 300 pM. The concentrations were determined in order to perform specificity assays under initial velocities at fixed substrate concentration. Compounds were pre-incubated with enzymes for 30 minutes at 25° C. Reactions were initiated by addition of substrate to the plates containing the enzymes (+/− compounds) diluted in assay buffer. Reactions were incubated for 60 minutes at 37° C. Reactions were stopped by adding acetic acid (100 mM final). Readings were performed on a Pherastar Fluorescent Reader (BMG). λ Emission 380 nm; λ Excitation=460 nm. Data (mean values +/− standard deviation) were analyzed as % of control (no compound) and plotted as percentage versus the Log of the compound concentration using GraphPad (Prism). Data were fitted to a sigmoidal model (variable slope).

The mark [1] stands for this setting: 400 nM Ub-AMC, 152 pM enzyme, 30 min pre-incubation at 25° C., 60 min at 37° C., sigmoidal fit, read-out: USP 7 (inhibition of cysteine protease activity).

T2 sequence (Q93009 whole entry): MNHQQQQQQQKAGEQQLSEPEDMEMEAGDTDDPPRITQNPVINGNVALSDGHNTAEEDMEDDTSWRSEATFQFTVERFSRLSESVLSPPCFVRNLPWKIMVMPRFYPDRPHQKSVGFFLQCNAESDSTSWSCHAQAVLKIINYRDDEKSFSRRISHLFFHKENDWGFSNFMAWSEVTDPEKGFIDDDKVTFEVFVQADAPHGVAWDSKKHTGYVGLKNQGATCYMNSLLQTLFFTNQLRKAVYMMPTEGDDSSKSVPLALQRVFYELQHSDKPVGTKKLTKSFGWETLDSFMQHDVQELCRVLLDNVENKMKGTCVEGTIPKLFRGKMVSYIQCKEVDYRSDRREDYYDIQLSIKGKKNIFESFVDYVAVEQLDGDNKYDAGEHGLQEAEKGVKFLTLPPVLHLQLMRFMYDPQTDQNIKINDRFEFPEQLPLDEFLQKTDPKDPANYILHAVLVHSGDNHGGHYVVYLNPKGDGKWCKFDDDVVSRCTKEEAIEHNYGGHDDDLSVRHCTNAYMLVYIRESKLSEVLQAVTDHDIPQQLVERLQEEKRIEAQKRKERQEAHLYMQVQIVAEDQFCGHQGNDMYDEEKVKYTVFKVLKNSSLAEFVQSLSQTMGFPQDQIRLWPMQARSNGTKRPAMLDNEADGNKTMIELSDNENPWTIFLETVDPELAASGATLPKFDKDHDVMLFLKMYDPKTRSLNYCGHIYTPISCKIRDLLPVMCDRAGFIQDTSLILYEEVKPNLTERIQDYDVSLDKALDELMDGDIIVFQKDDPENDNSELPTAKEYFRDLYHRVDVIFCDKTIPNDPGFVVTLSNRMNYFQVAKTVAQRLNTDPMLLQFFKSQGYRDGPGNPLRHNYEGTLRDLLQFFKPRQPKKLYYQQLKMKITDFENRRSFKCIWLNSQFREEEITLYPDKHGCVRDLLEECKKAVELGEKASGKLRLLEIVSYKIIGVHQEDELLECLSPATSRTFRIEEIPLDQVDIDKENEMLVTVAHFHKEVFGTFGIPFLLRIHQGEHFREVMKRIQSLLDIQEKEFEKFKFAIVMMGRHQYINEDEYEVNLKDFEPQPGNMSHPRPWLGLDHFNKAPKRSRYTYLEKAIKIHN

With `N#Cc1nc2c(nc1C#N)-c1ccccc1C2=NOCc1ccccc1` (mixture of isomers) [Example 13C, 9-Benzyloxyimino-9H-indeno[1,2-b]pyrazine-2,3-dicarbonitrile], the IC50 at Uch-L3, on USP7 (setting [1]) and on USP5 was greater than 100 µM each time.

As to `C=CCON=C1c2ccccc2-c2nc(C#N)c(C#N)nc21` (mixture of isomers) [Example 13b, 9-(Allyloxyimino)-9H-indeno[1,2-b]pyrazine-2,3-dicarbonitrile], the results for the IC50 on Uch-L3, against USP7 and at USP5 were 10 µM, greater than 100 µM and greater than 100 µM, respectively.

Turning to `CCON=C1c2ccccc2-c2nc(C#N)c(C#N)nc21` (mixture of isomers) [Example 13d, 9-Ethoxyimino-9H-indeno[1,2-b]pyrazine-2,3-dicarbonitrile], the IC50 on Uch-L3 is 1.3 µM; at USP7 (setting [1]) it was greater than 100 µM; on USP5, greater than 100 µM.

For `N#Cc1nc2c(nc1C#N)-c1ccccc1C2=Nc1ccccc1` (mixture of isomers) [Example 14, 9-[phenylimino]-9H-indeno[1,2-b]pyrazine-2,3-dicarbonitrile], the IC50 on Uch-L3 was 0.39 µM; at USP7 (setting [1]), 4.1 µM; on USP5 it was 1.9 µM.

Take `CC(=O)O/N=C1\c2ccccc2-c2nc(C(N)=O)c(C#N)nc21` (single isomer, unassigned) [Example 35, 2-cyano-9-acetoxyimino-9H-indeno[1,2-b]pyrazine-3-carboxylic acid amide]: the IC50 on Uch-L3 turned out to be 0.048 µM; at USP7 it was 0.506 µM; on USP5, 0.161 µM.

`N#Cc1nc2c(nc1C#N)-c1ccccc1C2=O` [Example 1, 9-oxo-9H-indeno[1,2-b]pyrazine-2,3-dicarbonitrile]: the IC50 was 0.76 µM on Uch-L3, 3.5 µM on USP7 (setting [1]) and 1.3 µM on USP5.

Regarding `COc1nc2c(nc1C#N)C(=O)c1ccccc1-2` [Example 3, 3-methoxy-9-oxo-9H-indeno[1,2-b]pyrazine-2-carbonitrile], the IC50 at Uch-L3 was 13 µM; at USP7 (setting [1]), greater than 100 µM; at USP5 it was greater than 100 µM.

For `CN(C)c1nc2c(nc1C#N)C(=O)c1ccccc1-2` [Example 4, 3-dimethylamino-9-oxo-9H-indeno[1,2-b]pyrazine-2-carbonitrile], the IC50 on Uch-L3, on USP7 (setting [1]) and at USP5 was greater than 100 µM each time.

`COCCOc1nc2c(nc1C#N)C(=O)c1ccccc1-2` [Example 5, 3-(2-methoxy-ethoxy)-9-oxo-9H-indeno[1,2-b]pyrazine-2-carbonitrile]: the IC50 was 24 µM at Uch-L3, greater than 100 µM on USP7 (setting [1]) and greater than 100 µM at USP5.

Consider `N#Cc1nc2c(nc1O)-c1ccccc1C2=O` [Example 6, 3-hydroxy-9-oxo-9H-indeno[1,2-b]pyrazine-2-carbonitrile], for which the IC50 on Uch-L3 was determined as 1.1 µM; at USP7 (setting [1]), 21.8 µM; at USP5 it was 9.1 µM.

As to `N#Cc1nc2c(nc1N)-c1ccccc1C2=O` [Example 7, 3-amino-9-oxo-9H-indeno[1,2-b]pyrazine-2-carbonitrile], the values for the IC50 on Uch-L3, at USP7 (setting [1]) and on USP5 were 52 µM, greater than 100 µM and greater than 100 µM, respectively.

Take `N#Cc1nc2c(nc1N1CCC(F)(F)CC1)-c1ccccc1C2=O` [Example 8, 3-(4,4-difluoro-piperidin-1-yl)-9-oxo-9H-indeno[1,2-b]-pyrazine-2-carbonitrile]: the IC50 at Uch-L3, at USP7 (setting [1]) and on USP5 was greater than 100 µM each time.

On to `N#Cc1nc2c(nc1C#N)C1(OCCO1)c1ccccc1-2` [Example 10], for which the IC50 is 20 µM at Uch-L3 and greater than 100 µM on USP5.

On to `CCO/C(O)=C(\C#N)c1nc2c(nc1C#N)C(=O)c1ccccc1-2` [Example 22, 3-(1-cyano-2-ethoxy-2-hydroxy-vinyl)-9-oxo-9H-indeno[1,2-b]pyrazine-2-carbonitrile], for which the figures for the IC50 on Uch-L3 and at USP5 were 22 µM and greater than 100 µM, respectively.
